{
  "source": "ChEMBL document CHEMBL1201862",
  "about": "“PubChem BioAssay data set” (2004)",
  "key": {"Hexokinase HKDC1": {"molecular_target": "T1, Hexokinase HKDC1 (Homo sapiens, UniProt Q2TB90)", "T1 sequence (Q2TB90 whole entry)": "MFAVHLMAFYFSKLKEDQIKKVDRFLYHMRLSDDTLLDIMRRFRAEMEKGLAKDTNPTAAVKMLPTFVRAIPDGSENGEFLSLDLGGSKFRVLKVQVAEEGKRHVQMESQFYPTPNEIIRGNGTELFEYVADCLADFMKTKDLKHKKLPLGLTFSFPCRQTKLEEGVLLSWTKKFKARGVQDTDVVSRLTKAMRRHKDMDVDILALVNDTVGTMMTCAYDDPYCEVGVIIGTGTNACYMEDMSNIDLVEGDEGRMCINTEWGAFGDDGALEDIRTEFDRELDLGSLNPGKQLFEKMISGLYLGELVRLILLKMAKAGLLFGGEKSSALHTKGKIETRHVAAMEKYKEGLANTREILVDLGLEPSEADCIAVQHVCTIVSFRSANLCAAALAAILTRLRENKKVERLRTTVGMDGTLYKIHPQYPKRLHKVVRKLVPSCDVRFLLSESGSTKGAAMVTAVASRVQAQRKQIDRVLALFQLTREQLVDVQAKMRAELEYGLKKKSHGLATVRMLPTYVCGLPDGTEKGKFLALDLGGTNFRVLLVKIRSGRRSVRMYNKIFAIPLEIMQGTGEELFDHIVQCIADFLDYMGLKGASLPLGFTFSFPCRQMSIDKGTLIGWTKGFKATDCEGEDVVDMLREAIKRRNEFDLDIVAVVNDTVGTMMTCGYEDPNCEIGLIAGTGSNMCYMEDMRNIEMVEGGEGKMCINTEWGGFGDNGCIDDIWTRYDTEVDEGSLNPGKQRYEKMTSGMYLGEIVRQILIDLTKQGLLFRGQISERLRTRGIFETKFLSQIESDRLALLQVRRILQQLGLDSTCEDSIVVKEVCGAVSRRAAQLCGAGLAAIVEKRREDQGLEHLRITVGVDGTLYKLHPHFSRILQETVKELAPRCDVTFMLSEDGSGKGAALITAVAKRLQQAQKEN", "assay": "inhibition of HKDC1 glucose phosphorylation – biochemical, W721R variant, dose response (AID 504729)", "type": "functional"}, "[1]": {"molecular_target": "T2, Alkaline phosphatase, tissue-nonspecific isozyme (Homo sapiens, UniProt P05186)", "T2 sequence (P05186 whole entry)": "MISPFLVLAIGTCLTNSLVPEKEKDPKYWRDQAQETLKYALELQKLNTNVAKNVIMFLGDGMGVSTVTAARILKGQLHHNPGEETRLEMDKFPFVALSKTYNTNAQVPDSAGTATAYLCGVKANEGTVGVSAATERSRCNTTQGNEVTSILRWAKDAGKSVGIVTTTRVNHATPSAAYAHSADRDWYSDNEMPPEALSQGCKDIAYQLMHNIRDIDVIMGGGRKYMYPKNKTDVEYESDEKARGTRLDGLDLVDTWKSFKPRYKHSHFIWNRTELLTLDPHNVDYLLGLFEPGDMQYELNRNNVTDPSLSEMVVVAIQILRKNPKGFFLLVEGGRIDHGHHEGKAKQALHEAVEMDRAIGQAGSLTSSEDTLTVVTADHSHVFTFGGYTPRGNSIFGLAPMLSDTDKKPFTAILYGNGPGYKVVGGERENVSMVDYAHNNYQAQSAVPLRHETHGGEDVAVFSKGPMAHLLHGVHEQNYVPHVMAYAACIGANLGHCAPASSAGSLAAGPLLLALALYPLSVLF", "assay": "potency against alkaline phosphatase TNAP – biochemical, luminescent, dose response, SAR follow-up (AID 1056)"}, "[2]": {"molecular_target": "T3, Acyl-homoserine lactone acylase PvdQ (Pseudomonas aeruginosa (strain LESB58), UniProt Q9I194)", "T3 sequence (Q9I194 whole entry)": "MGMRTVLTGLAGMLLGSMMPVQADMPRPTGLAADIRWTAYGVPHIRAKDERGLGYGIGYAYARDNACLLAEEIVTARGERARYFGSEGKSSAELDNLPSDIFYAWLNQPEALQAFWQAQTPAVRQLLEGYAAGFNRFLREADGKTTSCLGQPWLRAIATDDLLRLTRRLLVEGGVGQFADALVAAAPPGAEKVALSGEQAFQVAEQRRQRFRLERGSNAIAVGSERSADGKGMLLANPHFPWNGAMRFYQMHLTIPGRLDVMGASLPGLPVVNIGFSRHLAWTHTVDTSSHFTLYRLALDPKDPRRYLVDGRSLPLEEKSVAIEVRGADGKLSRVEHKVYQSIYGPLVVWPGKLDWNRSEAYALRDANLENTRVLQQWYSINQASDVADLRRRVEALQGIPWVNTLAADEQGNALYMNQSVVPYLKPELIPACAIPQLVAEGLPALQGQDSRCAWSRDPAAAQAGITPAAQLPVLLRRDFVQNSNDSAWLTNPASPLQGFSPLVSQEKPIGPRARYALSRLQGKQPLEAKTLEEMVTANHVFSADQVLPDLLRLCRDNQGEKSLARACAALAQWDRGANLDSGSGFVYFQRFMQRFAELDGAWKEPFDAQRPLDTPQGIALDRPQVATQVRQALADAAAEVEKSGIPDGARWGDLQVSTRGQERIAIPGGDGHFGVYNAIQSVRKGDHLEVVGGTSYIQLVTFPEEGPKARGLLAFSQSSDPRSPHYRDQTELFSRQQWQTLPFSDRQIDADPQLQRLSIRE", "assay": "PvdQ acylase enzyme activity blockers – biochemical, fluorescence, plate reader and imaging, cherry-picks, dose response (AID 493231)"}, "[3]": {"molecular_target": "Glyceraldehyde-3-phosphate dehydrogenase (Homo sapiens, UniProt P04406)", "sequence (P04406 whole entry)": "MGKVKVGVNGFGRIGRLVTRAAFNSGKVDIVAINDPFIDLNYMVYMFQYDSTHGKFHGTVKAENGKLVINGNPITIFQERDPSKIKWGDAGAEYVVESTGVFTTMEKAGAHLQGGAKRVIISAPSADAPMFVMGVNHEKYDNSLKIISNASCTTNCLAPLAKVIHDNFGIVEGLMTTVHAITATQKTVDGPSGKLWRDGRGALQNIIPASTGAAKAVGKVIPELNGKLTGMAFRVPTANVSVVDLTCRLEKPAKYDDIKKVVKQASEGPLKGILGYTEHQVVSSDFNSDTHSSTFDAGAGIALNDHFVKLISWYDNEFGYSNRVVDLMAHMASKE"}, "[4]": {"molecular_target": "DNA dC->dU-editing enzyme APOBEC-3G (Homo sapiens, UniProt Q9HC16)", "sequence (Q9HC16 whole entry)": "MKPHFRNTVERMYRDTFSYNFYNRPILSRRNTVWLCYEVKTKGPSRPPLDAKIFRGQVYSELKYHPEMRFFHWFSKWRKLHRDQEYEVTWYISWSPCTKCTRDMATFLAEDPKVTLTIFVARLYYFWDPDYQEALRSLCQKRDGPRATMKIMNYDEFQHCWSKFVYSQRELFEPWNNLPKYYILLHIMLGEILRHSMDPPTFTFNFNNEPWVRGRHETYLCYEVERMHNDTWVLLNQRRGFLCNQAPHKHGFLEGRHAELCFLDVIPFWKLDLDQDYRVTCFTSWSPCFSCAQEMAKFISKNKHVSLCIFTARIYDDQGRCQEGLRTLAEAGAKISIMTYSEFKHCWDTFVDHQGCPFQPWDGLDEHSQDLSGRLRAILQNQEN", "assay": "Dose Response confirmation of small molecule APOBEC3G DNA Deaminase Inhibitors via a fluorescence-based single-stranded DNA deaminase assay. [Related pubchem assays (depositor defined):AID493012, AID493028]", "type": "functional"}, "[5]": {"molecular_target": "Eukaryotic translation initiation factor 4E (Mus musculus, UniProt P63073)", "sequence (P63073 whole entry)": "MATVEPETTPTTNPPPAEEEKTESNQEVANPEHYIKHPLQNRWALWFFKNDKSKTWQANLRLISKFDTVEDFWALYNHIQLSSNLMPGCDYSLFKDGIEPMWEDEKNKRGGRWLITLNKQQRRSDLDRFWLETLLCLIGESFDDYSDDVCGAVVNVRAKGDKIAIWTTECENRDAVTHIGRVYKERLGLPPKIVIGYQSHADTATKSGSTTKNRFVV", "assay": "blockers of eIF4G binding by eIF4E – biochemical, TR-FRET, dose response (AID 855);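 also: potency for disrupting eIF4E binding to eIF4GI seen as loss of FRET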", "type": "functional"}, "Ion channel NompC": {"molecular_target": "Ion channel NompC (Danio rerio, UniProt Q7T1G6)", "sequence (Q7T1G6 whole entry)": "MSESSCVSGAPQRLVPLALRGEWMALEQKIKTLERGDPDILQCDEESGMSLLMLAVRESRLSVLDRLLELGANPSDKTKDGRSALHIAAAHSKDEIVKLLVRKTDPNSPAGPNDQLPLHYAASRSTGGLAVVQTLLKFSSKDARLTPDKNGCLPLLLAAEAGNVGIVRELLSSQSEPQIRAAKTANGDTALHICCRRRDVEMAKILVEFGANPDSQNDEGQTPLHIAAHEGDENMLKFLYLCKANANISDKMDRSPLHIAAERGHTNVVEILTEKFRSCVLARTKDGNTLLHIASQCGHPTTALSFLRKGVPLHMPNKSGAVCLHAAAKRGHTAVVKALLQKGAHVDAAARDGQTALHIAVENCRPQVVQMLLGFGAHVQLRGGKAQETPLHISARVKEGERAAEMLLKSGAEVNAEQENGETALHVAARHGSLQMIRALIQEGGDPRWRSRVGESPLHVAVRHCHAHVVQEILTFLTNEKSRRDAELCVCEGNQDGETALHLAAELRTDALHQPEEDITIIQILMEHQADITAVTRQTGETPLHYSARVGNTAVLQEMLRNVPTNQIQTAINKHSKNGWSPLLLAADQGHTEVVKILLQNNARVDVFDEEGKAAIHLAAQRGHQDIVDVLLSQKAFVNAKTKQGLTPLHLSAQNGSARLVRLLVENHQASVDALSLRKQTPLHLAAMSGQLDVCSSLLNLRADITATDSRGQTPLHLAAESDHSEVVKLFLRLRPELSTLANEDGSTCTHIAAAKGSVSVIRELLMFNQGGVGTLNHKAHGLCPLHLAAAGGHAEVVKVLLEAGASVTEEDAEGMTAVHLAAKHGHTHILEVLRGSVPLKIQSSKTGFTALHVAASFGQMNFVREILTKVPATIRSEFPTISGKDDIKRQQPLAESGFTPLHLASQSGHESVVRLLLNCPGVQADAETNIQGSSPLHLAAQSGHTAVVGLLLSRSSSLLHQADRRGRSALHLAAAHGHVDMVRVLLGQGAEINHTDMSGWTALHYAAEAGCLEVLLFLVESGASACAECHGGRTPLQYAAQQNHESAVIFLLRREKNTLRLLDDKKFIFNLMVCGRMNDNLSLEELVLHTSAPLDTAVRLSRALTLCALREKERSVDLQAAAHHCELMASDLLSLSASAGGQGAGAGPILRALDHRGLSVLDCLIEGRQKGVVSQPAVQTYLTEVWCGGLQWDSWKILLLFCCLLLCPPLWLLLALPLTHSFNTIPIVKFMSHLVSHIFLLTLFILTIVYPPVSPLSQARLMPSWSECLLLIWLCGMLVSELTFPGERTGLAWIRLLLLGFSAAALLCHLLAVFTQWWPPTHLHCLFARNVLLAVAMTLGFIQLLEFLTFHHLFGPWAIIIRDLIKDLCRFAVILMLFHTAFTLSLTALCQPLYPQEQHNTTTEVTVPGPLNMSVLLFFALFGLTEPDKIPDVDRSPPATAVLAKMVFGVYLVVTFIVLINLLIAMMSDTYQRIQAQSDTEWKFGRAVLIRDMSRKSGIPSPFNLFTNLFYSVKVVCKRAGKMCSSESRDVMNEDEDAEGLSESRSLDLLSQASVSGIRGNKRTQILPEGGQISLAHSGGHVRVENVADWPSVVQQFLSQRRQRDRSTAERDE", "assay": "Dose response cell-based high-throughput screening assay for agonists of the transient receptor potential channel N1 (TRPN1). [Related pubchem assays (depositor defined):AID1424, AID1448]", "type": "functional"}, "Mucolipin-3": {"molecular_target": "T4, Mucolipin-3 (Homo sapiens, UniProt Q8TDD5)", "T4 sequence (Q8TDD5 whole entry)": "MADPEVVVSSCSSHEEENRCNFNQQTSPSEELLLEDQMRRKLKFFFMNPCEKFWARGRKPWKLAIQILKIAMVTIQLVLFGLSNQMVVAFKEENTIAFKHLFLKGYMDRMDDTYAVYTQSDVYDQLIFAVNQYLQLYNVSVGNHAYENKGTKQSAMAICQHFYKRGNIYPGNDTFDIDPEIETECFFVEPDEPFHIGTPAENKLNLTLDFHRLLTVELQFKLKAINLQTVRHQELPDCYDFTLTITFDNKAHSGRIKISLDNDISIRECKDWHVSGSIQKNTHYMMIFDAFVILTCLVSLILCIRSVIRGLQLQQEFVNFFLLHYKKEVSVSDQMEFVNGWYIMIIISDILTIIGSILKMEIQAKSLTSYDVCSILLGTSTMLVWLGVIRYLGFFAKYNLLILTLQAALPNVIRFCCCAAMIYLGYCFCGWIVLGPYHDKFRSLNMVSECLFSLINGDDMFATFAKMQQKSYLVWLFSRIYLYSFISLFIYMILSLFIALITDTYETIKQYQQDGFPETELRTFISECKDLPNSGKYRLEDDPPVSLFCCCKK", "assay": "Fluorescence counterscreen assay for […] agonists: dose response cell-based high-throughput screening assay to identify agonists of the transient receptor potential channel ML3 (TRPML3). [Related pubchem assays: 1424, 1448 ]", "type": "functional"}},
  "note": "The source made the active and inactive calls.",
  "data": [
    {"smiles": "COc1ncnc2c1oc1nc(C(C)C)c3c(c12)CC(C)(C)OC3", "values": [
      {"measurement": "IC50", "setting": "Hexokinase HKDC1", "result": "11.7 µM (active)"}
    ]},
    {"smiles": "COC(=O)c1cc(-c2ccc(Br)cc2)on1", "values": [
      {"measurement": "IC50", "setting": "[1]", "result": "> 100 µM (inactive)"},
      {"measurement": "AC50", "setting": "[2]", "result": "4.37 µM (active)"},
      {"measurement": "IC50", "setting": "[3]", "result": "> 100 µM (not active)"}
    ]},
    {"smiles": "CCn1c(N)c(C(=O)NCC2CCCO2)sc1=S", "note": "(stereo not drawn)", "values": [
      {"measurement": "IC50", "setting": "[4]", "result": "66.6 µM (active)"}
    ]},
    {"smiles": "O=C(OCc1cc(=O)n2c(n1)sc1ccccc12)c1ccc(O)cc1O", "values": [
      {"measurement": "IC50", "setting": "[5]", "result": "50 µM (inactive)"}
    ]},
    {"smiles": "S=C(NCCCc1ccccc1)Nc1ccccc1Cl", "values": [
      {"measurement": "EC50", "setting": "Ion channel NompC", "result": "> 29.9 µM (inactive)"},
      {"measurement": "EC50", "setting": "Mucolipin-3", "result": "> 29.9 µM (not active)"}
    ]}
  ]
}
